Consider 22 compounds from patent US9845330B2, “6-nitro-2,3-dihydroimidazo[2,1-b]oxazoles and a process for the preparation thereof” (priority 2013, dated 2017).

Molecules are shown by their SMILES. Converted amounts (≈) assume the structure as drawn. Like-named read-outs stand apart in the source and are kept apart here.

Type in all cases: cell-based
In data set [1] the test system is macrophage J774 cells line. Put plainly: Cytotoxicity assay (MTT) in macrophage J774 cells. To be noted: J774 cells, 24 hrs, MTT. A digest of the protocol:
(§1)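 J774 cells seeded at 3×10^4 cells/cm^2 in RPMI with FCS reduced to 5%, then exposed to compounds at 40 μg/ml for 24 hrs. MTT reduction read at 450 nm; percentage cytotoxicity calculated relative to untreated cells.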

The nature of data set [2]: Cytotoxicity assay (MTT) in macrophage J774 cells. The note with it: mouse, J774 macrophage cells; also called safety index. A digest of the protocol: as §1
The test system of data set [3] is M. tuberculosis H37Rv (ATCC 27294). Put plainly: MIC by broth dilution method, M. tuberculosis H37Rv. The note with it: Mycobacterium tuberculosis.
Setting [4] is: 504 h, broth dilution, 3 weeks, read-out: MIC M. tb H37Rv.
Where [5] appears, read: read-out: MIC value, text summary: sensitive H37Rv as well as MDR and XDR strains of M. tuberculosis.

As for `CCc1ccc(-c2cn(-c3ccc(OC[C@@]4(C)Cn5cc([N+](=O)[O-])nc5O4)cc3)nn2)cc1` [IA2, (R)-2-{4-[4-(4-ethylphenyl)-1H-1,2,3-triazol-1-yl]phenoxymethyl}-2,3-dihydro-2-methyl-6-nitroimidazo[2,1-b]oxazole], in data set [1], the Cytotoxicity was greater than 40 µg/mL. The selectivity ratio at 24 h, 40 μg/ml in data set [2] was greater than 10. In addition, the MIC in data set [3] (setting [4]) worked out at 2 µg/mL (≈ 4.48 µM).

For the compound `Cc1ccc(NC(=O)Nc2ccc(OC[C@@]3(C)Cn4cc([N+](=O)[O-])nc4O3)cc2)cc1` [IIA4, (R)-1-(4-methylphenyl)-3-{4-(2-methyl-6-nitro-2,3-dihydroimidazo[2,1-b]oxazol-2-yl)methoxyphenyl}urea], in data set [1], the Cytotoxicity was greater than 40 µg/mL. Also, in data set [2], the selectivity ratio at 24 h, 40 μg/ml is greater than 10. Moreover, the MIC in data set [3] (setting [4]) was 0.06 µg/mL (≈ 0.142 µM); in data set [3] (setting [5]), less than 1 µg/mL.

In data set [1], `C[C@]1(COc2ccc(S(=O)(=O)N3CCN(c4cccc(Cl)c4)CC3)cc2)Cn2cc([N+](=O)[O-])nc2O1` [IIC3, (R)-2-{4-[4-(3-chlorophenyl)piperazin-1-yl]sulfonylphenoxymethyl}-2,3-dihydro-2-methyl-6-nitroimidazo[2,1-b]oxazole] returned a Cytotoxicity greater than 40 µg/mL. In addition, the selectivity ratio at 24 h, 40 μg/ml in data set [2] is greater than 10. Also, the MIC in data set [3] (setting [4]) turned out to be 8 µg/mL (≈ 15 µM).

`C[C@]1(COc2ccc(-n3cc(-c4ccc(F)cc4)nn3)cc2)Cn2cc([N+](=O)[O-])nc2O1` [IA3, (R)-2-{4-[4-(4-fluorophenyl)-1H-1,2,3-triazol-1-yl]phenoxymethyl}-2,3-dihydro-2-methyl-6-nitroimidazo[2,1-b]oxazole]: the Cytotoxicity in data set [1] is greater than 40 µg/mL. In addition, in data set [2], the selectivity ratio at 24 h, 40 μg/ml was greater than 10. Further, the figures for the MIC in data set [3] (setting [4]) and in data set [3] (setting [5]) were 0.25 µg/mL (≈ 0.573 µM) and less than 1 µg/mL, respectively.

`C[C@]1(COc2ccc(S(=O)(=O)N3CCN(c4ccc(OC(F)(F)F)cc4)CC3)cc2)Cn2cc([N+](=O)[O-])nc2O1` [IIC4, (R)-2-{4-[4-(4-trifluoromethoxyphenyl)piperazin-1-yl]sulfonylphenoxymethyl}-2,3-dihydro-2-methyl-6-nitroimidazo[2,1-b]oxazole] yielded a Cytotoxicity in data set [1] greater than 40 µg/mL. Moreover, the selectivity ratio at 24 h, 40 μg/ml in data set [2] is greater than 10. Besides, the MIC in data set [3] (setting [4]) worked out at 2 µg/mL (≈ 3.43 µM).

In data set [1], `Cc1ccc(OCc2cc(-c3ccc(OC[C@@]4(C)Cn5cc([N+](=O)[O-])nc5O4)cc3)no2)cc1` [IC17, (R)-2-{4-[5-(4-methylphenoxymethyl)isoxazol-3-yl]phenoxymethyl}-2,3-dihydro-2-methyl-6-nitroimidazo[2,1-b]oxazole] had a Cytotoxicity greater than 40 µg/mL. For the same compound, the selectivity ratio at 24 h, 40 μg/ml in data set [2] was greater than 10. Also, the MIC is 0.5 µg/mL (≈ 1.08 µM) in data set [3] (setting [4]) and less than 1 µg/mL in data set [3] (setting [5]).

`C[C@]1(COc2ccccc2-n2cc(COc3ccc(C(F)(F)F)cc3)nn2)Cn2cc([N+](=O)[O-])nc2O1` [IA41]: the Cytotoxicity in data set [1] is greater than 40 µg/mL. The selectivity ratio at 24 h, 40 μg/ml in data set [2] is greater than 10. In addition, the MIC in data set [3] (setting [4]) was 2 µg/mL (≈ 3.87 µM).

Regarding `C[C@]1(COc2ccc(-c3cc(-c4ccc(OC(F)(F)F)cc4)on3)cc2)Cn2cc([N+](=O)[O-])nc2O1` [IC10, (R)-2-{4-[5-(4-trifluoromethoxyphenyl)isoxazol-3-yl]phenoxymethyl}-2,3-dihydro-2-methyl-6-nitroimidazo[2,1-b]oxazole], the Cytotoxicity in data set [1] is greater than 40 µg/mL. In addition, the selectivity ratio at 24 h, 40 μg/ml in data set [2] is greater than 10. For the same compound, the MIC in data set [3] (setting [4]) is 0.5 µg/mL (≈ 0.995 µM); in data set [3] (setting [5]), less than 1 µg/mL.

With `C[C@]1(COc2ccccc2-n2cc(-c3ccc(F)cc3F)nn2)Cn2cc([N+](=O)[O-])nc2O1` [IA24, (R)-2-{2-[4-(2,4-difluorophenyl)-1H-1,2,3-triazol-1-yl]phenoxymethyl}-2,3-dihydro-2-methyl-6-nitroimidazo[2,1-b]oxazole], the Cytotoxicity in data set [1] is greater than 40 µg/mL. In addition, the selectivity ratio at 24 h, 40 μg/ml in data set [2] was greater than 10. In data set [3] (setting [4]), the MIC came out at 1 µg/mL (≈ 2.2 µM).

For `COc1ccc(-c2cc(-c3ccc(OC[C@@]4(C)Cn5cc([N+](=O)[O-])nc5O4)cc3)no2)cc1` [IC7, (R)-2-{4-[5-(4-methoxyphenyl)isoxazol-3-yl]phenoxymethyl}-2,3-dihydro-2-methyl-6-nitroimidazo[2,1-b]oxazole], the Cytotoxicity in data set [1] was greater than 40 µg/mL. Besides, the selectivity ratio at 24 h, 40 μg/ml in data set [2] is greater than 10. Moreover, the MIC in data set [3] (setting [4]) is 0.5 µg/mL (≈ 1.11 µM); in data set [3] (setting [5]), less than 1 µg/mL.

`CC(C)c1ccc(OCc2cn(-c3ccc(OC[C@@]4(C)Cn5cc([N+](=O)[O-])nc5O4)cc3)nn2)cc1` [IA30]: the Cytotoxicity in data set [1] was greater than 40 µg/mL. In addition, in data set [2], the selectivity ratio at 24 h, 40 μg/ml was greater than 10. Moreover, the MIC in data set [3] (setting [4]) is 32 µg/mL (≈ 65.2 µM).

Turning to `C[C@]1(COc2ccc(-c3cc(COc4ccccc4F)on3)cc2)Cn2cc([N+](=O)[O-])nc2O1` [IC16, (R)-2-{4-[5-(2-fluorophenoxymethyl)isoxazol-3-yl]phenoxymethyl}-2,3-dihydro-2-methyl-6-nitroimidazo[2,1-b]oxazole], the Cytotoxicity in data set [1] is greater than 40 µg/mL. Also, the selectivity ratio at 24 h, 40 μg/ml in data set [2] is greater than 10. Also, the MIC in data set [3] (setting [4]) is 0.5 µg/mL (≈ 1.07 µM); in data set [3] (setting [5]), less than 1 µg/mL.

In the case of `C[C@]1(COc2ccc(-c3cc(COc4ccc(C(F)(F)F)cc4)on3)cc2)Cn2cc([N+](=O)[O-])nc2O1` [IC15, (R)-2-{4-[5-(4-trifluoromethylphenoxymethyl)isoxazol-3-yl]phenoxymethyl}-2,3-dihydro-2-methyl-6-nitroimidazo[2,1-b]oxazole], the Cytotoxicity in data set [1] is greater than 40 µg/mL. In addition, the selectivity ratio at 24 h, 40 μg/ml in data set [2] is greater than 10. In addition, the MIC in data set [3] (setting [4]) is 0.25 µg/mL (≈ 0.484 µM); in data set [3] (setting [5]) it was less than 1 µg/mL.

Regarding `C[C@]1(COc2ccc(-n3cc(COc4ccc(C(F)(F)F)cc4)nn3)cc2)Cn2cc([N+](=O)[O-])nc2O1` [IA27], the Cytotoxicity in data set [1] is greater than 40 µg/mL. The selectivity ratio at 24 h, 40 μg/ml in data set [2] was greater than 10. The figures for the minimum inhibitory concentration (MIC) in data set [3] (setting [4]) and in data set [3] (setting [5]) were 0.25 µg/mL (≈ 0.484 µM) and less than 1 µg/mL, respectively.

In turn, `CCc1ccc(NC(=O)Nc2ccc(OC[C@@]3(C)Cn4cc([N+](=O)[O-])nc4O3)cc2)cc1` [IIA2, (R)-1-(4-ethylphenyl)-3-{4-(2-methyl-6-nitro-2,3-dihydroimidazo[2,1-b]oxazol-2-yl)methoxyphenyl}urea] had a Cytotoxicity in data set [1] greater than 40 µg/mL. In addition, the selectivity ratio at 24 h, 40 μg/ml in data set [2] was greater than 10. Moreover, the MIC was 0.5 µg/mL (≈ 1.14 µM) in data set [3] (setting [4]) and less than 1 µg/mL in data set [3] (setting [5]).

On to `C[C@]1(COc2ccccc2-n2cc(COc3ccc(F)cc3)nn2)Cn2cc([N+](=O)[O-])nc2O1` [IA40], for which the Cytotoxicity in data set [1] is greater than 40 µg/mL. Further, the selectivity ratio at 24 h, 40 μg/ml in data set [2] was greater than 10. For the same compound, in data set [3] (setting [4]), the MIC was found to be 4 µg/mL (≈ 8.58 µM).

As to `C[C@]1(COc2ccc(-n3cc(-c4ccc(OC(F)(F)F)cc4)nn3)cc2)Cn2cc([N+](=O)[O-])nc2O1` [IA5, (R)-2-{4-[4-(4-trifluoromethoxyphenyl)-1H-1,2,3-triazol-1-yl]phenoxymethyl}-2,3-dihydro-2-methyl-6-nitroimidazo[2,1-b]oxazole], in data set [1], the Cytotoxicity is greater than 40 µg/mL. Moreover, the selectivity ratio at 24 h, 40 μg/ml in data set [2] was greater than 10. The MIC in data set [3] (setting [4]) is 0.5 µg/mL (≈ 0.995 µM); in data set [3] (setting [5]), less than 1 µg/mL.

In data set [1], `C[C@]1(COc2ccc(-n3cc(-c4ccccn4)nn3)cc2)Cn2cc([N+](=O)[O-])nc2O1` [IA14] displayed a Cytotoxicity greater than 40 µg/mL. For the same compound, in data set [2], the selectivity ratio at 24 h, 40 μg/ml is greater than 10. Further, the minimum inhibitory concentration (MIC) in data set [3] (setting [4]) is 2 µg/mL (≈ 4.77 µM).

With `C[C@]1(COc2cccc(-n3cc(COc4ccc(F)cc4)nn3)c2)Cn2cc([N+](=O)[O-])nc2O1` [IA34], the Cytotoxicity in data set [1] is greater than 40 µg/mL. Moreover, the selectivity ratio at 24 h, 40 μg/ml in data set [2] was greater than 10. The MIC was 0.12 µg/mL (≈ 0.257 µM) in data set [3] (setting [4]) and less than 1 µg/mL in data set [3] (setting [5]).

Consider `C[C@]1(COc2ccc(NC(=O)Nc3ccc(OC(F)(F)F)cc3)cc2)Cn2cc([N+](=O)[O-])nc2O1` [IIA6, (R)-1-(4-trifluoromethoxyphenyl)-3-{4-(2-methyl-6-nitro-2,3-dihydroimidazo[2,1-b]oxazol-2-yl)methoxyphenyl}urea], for which, in data set [1], the Cytotoxicity was greater than 40 µg/mL. Besides, the selectivity ratio at 24 h, 40 μg/ml in data set [2] is greater than 10. Also, the values for the minimal inhibitory concentration (MIC) in data set [3] (setting [4]) and in data set [3] (setting [5]) were 0.5 µg/mL (≈ 1.01 µM) and less than 1 µg/mL, respectively.

As for `C[C@]1(COc2ccc(S(=O)(=O)N3CCN(C(=O)c4ccccc4)CC3)cc2)Cn2cc([N+](=O)[O-])nc2O1` [IIC6, (R)-{4-[4-(2-methyl-6-nitro-2,3-dihydroimidazo[2,1-b]oxazol-2yl)methoxyphenyl]sulfonyl}piperazine-1-yl(phenyl)methanone], the Cytotoxicity in data set [1] is greater than 40 µg/mL. Besides, the selectivity ratio at 24 h, 40 μg/ml in data set [2] was greater than 10. Further, the MIC in data set [3] (setting [4]) came to 2 µg/mL (≈ 3.79 µM).

In turn, `C[C@]1(COc2ccc(-c3cc(-c4ccccc4)on3)cc2)Cn2cc([N+](=O)[O-])nc2O1` [IC1, (R)-2-{4-[5-phenylisoxazol-3-yl]phenoxymethyl}-2,3-dihydro-2-methyl-6-nitroimidazo[2,1-b]oxazole] came in with a Cytotoxicity in data set [1] greater than 40 µg/mL. Besides, in data set [2], the selectivity ratio at 24 h, 40 μg/ml was greater than 10. Besides, the MIC in data set [3] (504 h, read-out: MIC M. tb H37Rv, broth dilution, 3 weeks) is 0.06 µg/mL (≈ 0.143 µM); in data set [3] (setting [5]), less than 1 µg/mL.
